Consider 13 molecules from US20130210061A1, “Method of Screening Damp-Dry Malodor Inhibitor and Method of Evaluating Damp-Dry Malodor Inhibitor” (KAO CORPORATION, priority 2010, published 2013).

What all share (experiment): Example 1: quantification of 4M3H on cotton fabric with 14-methylhexadecanoic acid
The test system of test [1] is P. alcaligenes No. 41. In kind it is cell-based, Pseudomonas alcaligenes. As to conditions: 100 ppm test substance, 37° C., 24 hours, vs sterilized water. On the procedure: (§1) 10 mL of methanol was added to the towel that had been left to stand still for 24 hours, and 1 mL of the methanol was mixed with 1 mL of ADAM (9-anthrydiazomethanene, manufactured by Funakoshi Corp., 0.1 w/v %). The mixture was left to stand for 60 minutes at room temperature, and thus derivatization was carried out.
(§2) Thereafter, 10 μL of the solution was analyzed by using LC-FL (liquid chromatography apparatus: HITACHI ELITE LaChrom (trade name, manufactured by Hitachi, Ltd.), column: Lichrosphere 100 RP-8(e) (trade name, manufactured by Agilent Technologies, Inc., 5 μm×125 mm×4 mmφ), column temperature: 40° C., eluent a mixed solution of acetonitrile/water=7/3 (volume ratio), flow rate: 1.0 mL/min, detector: excitation wavelength (365 nm), measurement wavelength (412 nm)), and thereby quantification of 4M3H thus produced was carried out. In regard to the amount of production of 4M3H, a sample which produced 4M3H in an amount of more than 1 μg was rated as “[…]”; a sample which produced 4M3H in an amount of more than 0.1 μg and 1 μg or less was rated as “∘”; a sample which produced 4M3H in an amount of more than 0 μg and 0.1 μg or less was rated as “Δ”; and a sample in which no 4M3H was detected was rated as “x”.
(§3) One platinum loop of each of Moraxella osloensis NCIMB10693, Moraxella sp. 4-1, Psychrobacter pacificensis NBRC103191, Psychrobacter glacincola NCIMB101053, Pseudomonas alcaligenes No. 41, Acinetobacter calcoaceticus HH2BD-49, Saccaromyces cerevisiae NBRC1661, Rhodotorula mucilaginosa NBRC0909 and Rhodotorula slooffiae 13c was inoculated into 5 mL of a SCD liquid medium (manufactured by Nihon Pharmaceutical Co., Ltd.), and the microbial cells were subjected to shaking culture (160 rpm) at 35° C. for 24 hours. The microbial cells obtained after culture were centrifuged (8000×g, 10 minutes), the supernatant was removed, and then the microbial cells were suspended in 5 mL of physiological saline. The suspension was centrifuged again (8000×g, 10 minutes), subsequently the supernatant was removed, and a microbial suspension was prepared by using physiological saline such that the OD600 would be 0.1.
(§4) Furthermore, 0.1 mL each of 10-ppm or 100-ppm aqueous solutions of the compounds shown in the following Table 6 was applied on the fabric described above. As a control, a fabric on which sterilized water was applied instead of the compounds described below was also prepared.
(§5) On a plain-woven cotton fabric prepared as described above, 0.1 mL each of the various microbial suspensions was inoculated, and the samples were left to stand still under humidified conditions at 37° C. for 24 hours and were subjected to an evaluation such as described below.
(§6) Quantification of 4M3H was carried out by the same method as that used in Test Example 3, and by taking as a reference the 4M3H production amount of a sample on which sterilized water was applied as a test substance, the 4M3H production amounts in the case of applying other test substances were evaluated on the basis of the following criteria. • A: (4M3H production amount in the case of applying a test substance)<( 1/100 of the 4M3H production amount in the case of applying sterilized water) • B: ( 1/100 of the 4M3H production amount in the case of applying sterilized water)≦(4M3H production amount in the case of applying a test substance)<( 1/10 of the 4M3H production amount in the case of applying sterilized water) • C: ( 1/10 of the 4M3H production amount in the case of applying sterilized water)≦(4M3H production amount in the case of applying a test substance)<(4M3H production amount in the case of applying sterilized water) • D: (4M3H production amount in the case of applying sterilized water)≦(4M3H production amount in the case of applying a test substance)

The subject of test [2] is S. cerevisiae NBRC1661. It counts as cell-based, Saccaromyces cerevisiae. As to conditions: 100 ppm test substance, 37° C., 24 hours, vs sterilized water. The protocol: as §1, §2, §3, §4, §5, §6
In test [3] the test system is P. pacificensis NBRC103191. In kind it is cell-based, Psychrobacter pacificensis. The following applies: 100 ppm test substance, 37° C., 24 hours, vs sterilized water. On the procedure:
as §1, §2, §3, §4, §5, §6

Test [4] deals with M. osloensis NCIMB10693. In kind it is cell-based, Moraxella osloensis. The protocol:
as §1, §2, §3, §4, §5, §6

For test [5], the system named is Moraxella sp. 4-1. It counts as cell-based. As to conditions: 100 ppm test substance, 37° C., 24 hours, vs sterilized water. On the procedure:
as §1, §2, §3, §4, §5, §6

Test [6] relates to R. slooffiae 13c. In kind it is cell-based, Rhodotorula slooffiae. The following applies: 100 ppm test substance, 37° C., 24 hours, vs sterilized water. On the procedure: as §1, §2, §3, §4, §5, §6
Test [7] has as its system A. calcoaceticus HH2BD-49. It counts as cell-based, Acinetobacter calcoaceticus. As to conditions: 100 ppm test substance, 37° C., 24 hours, vs sterilized water. On the procedure: as §1, §2, §3, §4, §5, §6
The subject of test [8] is R. muculaginosa NBRC0909. It counts as cell-based, Rhodotorula mucilaginosa. As to conditions: 100 ppm test substance, 37° C., 24 hours, vs sterilized water. On the procedure: as §1, §2, §3, §4, §5, §6
Test [9] relates to P. glacincola NBRC101053. It counts as cell-based, Psychrobacter glacincola. The following applies: 100 ppm test substance, 37° C., 24 hours, vs sterilized water. On the procedure: as §1, §2, §3, §4, §5, §6
Setting [10] is: Faucicola osloensis, 100 ppm test substance, M. osloensis NCIMB10693, cotton fabric with 14-methylhexadecanoic acid, 37° C., 24 hours, vs sterilized water, read-out: Production amount of 4M3H.
The mark [11] stands for this setting: 100 ppm test substance, M. osloensis NCIMB10693, cotton fabric with 14-methylhexadecanoic acid, 37° C., 24 hours, vs sterilized water.
[12] abbreviates: Faucicola osloensis, NCIMB10693, 24 h, read-out: Production amount of 4M3H.

Read-outs that look alike come from different tables or passages of the source.

Regarding `CCCCCCCC/C=C\CCCCCCCC(=O)O` [Oleic acid], the “Production amount of 4M3H” value was “C (( 1/10 of the 4M3H production amount in the case of applying sterilized water)≦(4M3H production amount in the case of applying a test substance)<(4M3H production amount in the case of applying sterilized water))” in test [1]; “B (( 1/100 of the 4M3H production amount in the case of applying sterilized water)≦(4M3H production amount in the case of applying a test substance)<( 1/10 of the 4M3H production amount in the case of applying sterilized water))” in [2]; “C (( 1/10 of the 4M3H production amount in the case of applying sterilized water)≦(4M3H production amount in the case of applying a test substance)<(4M3H production amount in the case of applying sterilized water))” in test [3]; “B (( 1/100 of the 4M3H production amount in the case of applying sterilized water)≦(4M3H production amount in the case of applying a test substance)<( 1/10 of the 4M3H production amount in the case of applying sterilized water))” in test [5]; “C (( 1/10 of the 4M3H production amount in the case of applying sterilized water)≦(4M3H production amount in the case of applying a test substance)<(4M3H production amount in the case of applying sterilized water))” in [6]; “C (( 1/10 of the 4M3H production amount in the case of applying sterilized water)≦(4M3H production amount in the case of applying a test substance)<(4M3H production amount in the case of applying sterilized water))” in test [7]. Also, the “Production amount of 4M3H” value in test [8] is given as “B (( 1/100 of the 4M3H production amount in the case of applying sterilized water)≦(4M3H production amount in the case of applying a test substance)<( 1/10 of the 4M3H production amount in the case of applying sterilized water))”; in test [9], “A ((4M3H production amount in the case of applying a test substance)<( 1/100 of the 4M3H production amount in the case of applying sterilized water))”. Besides, the activity at 100 ppm in test [4] (setting [10]) was in the range of 1 to 10%.

For Alkyl benzyl dimethyl ammonium chloride, the “Production amount of 4M3H” value in [1] is on record as “D ((4M3H production amount in the case of applying sterilized water)≦(4M3H production amount in the case of applying a test substance))”; in test [2], “C (( 1/10 of the 4M3H production amount in the case of applying sterilized water)≦(4M3H production amount in the case of applying a test substance)<(4M3H production amount in the case of applying sterilized water))”; in test [3], “D ((4M3H production amount in the case of applying sterilized water)≦(4M3H production amount in the case of applying a test substance))”; in test [4] (setting [11]) it was “D ((4M3H production amount in the case of applying sterilized water)≦(4M3H production amount in the case of applying a test substance))”; in test [5], “D ((4M3H production amount in the case of applying sterilized water)≦(4M3H production amount in the case of applying a test substance))”; in test [6], “D ((4M3H production amount in the case of applying sterilized water)≦(4M3H production amount in the case of applying a test substance))”. Further, the results for the “Production amount of 4M3H” value in [7], in [8] and in test [9] were “D ((4M3H production amount in the case of applying sterilized water)≦(4M3H production amount in the case of applying a test substance))”, “D ((4M3H production amount in the case of applying sterilized water)≦(4M3H production amount in the case of applying a test substance))” and “C (( 1/10 of the 4M3H production amount in the case of applying sterilized water)≦(4M3H production amount in the case of applying a test substance)<(4M3H production amount in the case of applying sterilized water))”, respectively.

Turning to `O=C/C=C/c1ccccc1` [Cinnamic aldehyde], in [4] (setting [12]), the activity at 10 ppm is 10 to 100% and the activity at 100 ppm is less than 1%.

With `CCCCCCCCCCCCCCCCCC(=O)O` [Stearic acid], the activity at 100 ppm in test [4] (setting [10]) fell in the range of 10 to 100%.

As to `CCCCCCCCCCCC[N+](C)(C)C` [Dodecyl trimethyl ammonium chloride], in [4] (setting [12]), the activity at 100 ppm was in the range of 10 to 100%.

Polyoxyethylene (10) lauryl ether: the “Production amount of 4M3H” value in test [4] (setting [11]) is “D ((4M3H production amount in the case of applying sterilized water)≦(4M3H production amount in the case of applying a test substance))”.

For “Sodium alkylbenzene sulfonate [Sodium akylbenzene sulfonate]”, the “Production amount of 4M3H” value in test [4] (setting [11]) was “C (( 1/10 of the 4M3H production amount in the case of applying sterilized water)≦(4M3H production amount in the case of applying a test substance)<(4M3H production amount in the case of applying sterilized water))”.

For `CCCCC/C=C\C/C=C\CCCCCCCC(=O)O` [Linoleic acid], the activity at 100 ppm in test [4] (setting [10]) is 1 to 10%.

In the case of Polylysine, the “Production amount of 4M3H” value is recorded as “D ((4M3H production amount in the case of applying sterilized water)≦(4M3H production amount in the case of applying a test substance))” in test [4] (10 ppm test substance, M. osloensis NCIMB10693, cotton fabric with 14-methylhexadecanoic acid, 37° C., 24 hours, vs sterilized water) and “C (( 1/10 of the 4M3H production amount in the case of applying sterilized water)≦(4M3H production amount in the case of applying a test substance)<(4M3H production amount in the case of applying sterilized water))” in test [4] (setting [11]).

`CCCCCCCCCCCCCC[N+](C)(C)C` [Tetradecyl trimethyl ammonium chloride]: in test [4] (setting [10]), the activity at 100 ppm fell in the range of 10 to 100%.

Regarding `CCCCCCCCCCCCCCCC[N+](C)(C)C` [Hexadecyl trimethyl ammonium chloride], in test [4] (setting [12]), the activity at 100 ppm is greater than 100%.

For the molecule `CCCCCCCCCCCCCCCC(=O)O` [Palmitic acid], the activity at 100 ppm in test [4] (setting [10]) is 10 to 100%.

On to `CC/C=C\C/C=C\C/C=C\CCCCCCCC(=O)O` [Linolenic acid], for which, in test [4] (setting [10]), the activity at 100 ppm fell in the range of 1 to 10%.
